From patent publication US20080000489A1, “Method and preparation for binding aldehydes in saliva” (BIOHIT OYJ, priority 2000, published 2008) come the findings set out here.

The assay in a line: Salivary acetaldehyde in smokers sucking blinded L-cysteine tablets during cigarette smoking, gas chromatography. In kind it is in vivo, human. Conditions: for mean salivary acetaldehyde concentration immediately after smoking: five smokers, placebo 191.2±48.5 μM. How it is done: Five smokers (age 29±2.8) participated in the study, in which […] were smoked (wash-out periods between). During every cigarette smoking (in 5 min time) volunteers sucked blinded tablets containing placebo, 1.25 mg, 2.5 mg, 5 mg, 10 mg or 20 mg L-cysteine. Acetaldehyde was analysed from salivary samples gas chromatographically at 0, 5, 10, 20 min from the beginning of smoking.
The mean salivary acetaldehyde concentrations immediately after smoking were 191.2±48.5 μM, 0 μM, 0 μM, 0 μM with placebo, 5 mg, 10 mg and 20 mg L-cysteine tablets, respectively.

On to `N[C@@H](CS)C(=O)O` [L-cysteine], for which the “amount of acetaldehyde compared to placebo” value (1.25 mg L-cysteine tablet) was “about to third compared to placebo”. Also, the “mean salivary acetaldehyde concentration immediately after smoking” value (5 mg L-cysteine tablet sucked during 5 min smoking) came out at 0 µM, the “mean salivary acetaldehyde concentration immediately after smoking” value (10 mg L-cysteine tablet sucked during 5 min smoking) was determined as 0 µM and the “mean salivary acetaldehyde concentration immediately after smoking” value (20 mg L-cysteine tablet sucked during 5 min smoking) worked out at 0 µM. In addition, the “carcinogenic acetaldehyde in the saliva during smoking” value (5 mg of L-cysteine administered by melting-tablet) was “totally inactivates”. Further, the “tobacco-originated acetaldehyde from the saliva” value (L-cysteine tablets 5 mg, 10 and 20 mg, FIG. 4) was “totally eradicated”.
